Data taken from US11396501B2, “Heteroaryl compounds as CXCR4 inhibitors, composition and method using the same” (CGENETECH (SUZHOU, CHINA) CO., LTD., priority 2017, dated 2022).

Tests used:
CXCR4 [1] = target: T1, CXCR4 (Homo sapiens, UniProt P61073); test: FLIPR Tetra calcium mobilization assay; assay type: cell-based; conditions: Human CD4+ T-Cells; CXCL12 added; FLIPR Calcium 4 assay kit
Experimental: FLIPR Tetra Calcium Mobilization Assay The FLIPR Tetra calcium mobilization assay was performed by HD Bioscience. Briefly, The Molecular Devices, Fluorescent Imaging Plate Reader (FLIPR) Tetra was used in this assay. Excitation was achieved through unique placement of LED's within the instrument and emission captured by a CCD camera (EMCCD camera for FI and ICCD camera for luminescence). The homogeneous FLIPR Calcium 4 assay kit from Molecular Devices was used as the fluorescence reagent. Compounds were solubilized in 100% dimethyl sulfoxide (DMSO) to a concentration of 30 mM. A 10-point, 4-fold, intermediate dilution series was created in 100% DMSO with a top concentration of 4 mM and a bottom concentration of 0.01 μM. A near assay ready, direct dilution plate ([…]) was prepared from this compound dilution plate by transferring 1 μL of each dilution of compound in 100% DMSO to a Greiner #781201 plate. In addition, each […] plate also contained positive and negative control wells to define the upper and lower limits for the assay signal. The final assay concentration range of compound was 10 μM to 0.035 nM in 0.5% DMSO. Human CD^4+ T-Cells were isolated from human whole blood and subsequently activated and expanded using a CD3/CD28 expansion kit (Life Technologies). The cells were frozen in ThermoFisher-formulated Recovery Cell Culture Freezing Medium containing 10% Dimethyl sulfoxide (DMSO) and 10% Fetal Bovine Serum (FBS) (ThermoFisher Catalog No. 10100147). When used, cells were resuspended using room temperature 1× HBSS/20 mM HEPES/0.005% P-104 assay buffer, adjusted the volume of the suspension to achieve a cell concentration of 2.5×10^6 cells/mL. 2× Calcium 4 dye (20 μL/well) were added and the mixture were centrifuged briefly ( 10 s) and stopped when it reached 1000 rpm. The plates were allowed to equilibrate before compounds and CXCL12 were added to the plates. The raw data were analyzed using Abase. The percent (%) effect at each concentration of compound was calculated by Abase and was based on and relative to the amount of calcium produced in the positive and negative control wells contained within each assay plate. The concentrations and % effect values for tested compounds were plotted by Abase and the concentration of compound required for 50% effect (IC50) was determined with a four-parameter logistic dose response equation. FIGS. 3 and 4 summarize the results of Compounds A78 and A83 in the calcium mobilization assay.

CXCR4 [2] = target: T1, CXCR4; test: HPB-ALL CXCR4 competitive binding assay (12G5 binding assay); parameters: HPB-ALL cells were maintained in RPMI-1640 (Gibico) supplemented with 10% FBS (Hyclone); endogenous in cells; host or cells: HPB-ALL cells; conditions: HPB-ALL cells; competition with APC-conjugated anti-human CXCR4 clone 12G5 at its EC80; 4° C. for 3 h; FACS

T1 sequence (P61073 whole entry): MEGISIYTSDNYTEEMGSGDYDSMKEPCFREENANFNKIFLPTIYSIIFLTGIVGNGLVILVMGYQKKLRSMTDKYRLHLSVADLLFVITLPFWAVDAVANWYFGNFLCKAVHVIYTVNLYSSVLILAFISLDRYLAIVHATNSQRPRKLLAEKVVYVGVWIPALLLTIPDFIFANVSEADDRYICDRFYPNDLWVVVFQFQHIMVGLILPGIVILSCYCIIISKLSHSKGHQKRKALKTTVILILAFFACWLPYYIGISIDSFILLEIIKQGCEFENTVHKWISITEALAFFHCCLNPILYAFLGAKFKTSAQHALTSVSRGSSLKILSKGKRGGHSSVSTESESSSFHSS

Structure (SMILES) | IC50 (CXCR4 [1]) [nM] | IC50 (CXCR4 [2]) [nM]
Cc1nc(CN(C)[C@H]2CCCc3cccnc32)cc(N2CCN(C)CC2)n1 [Compound A42] | 0.021 | 9.8
Cc1nc(CN(CCCC(=O)O)c2cccc3cccnc23)cc(N2CCN(C)CC2)n1 [Compound D30, 4-(((2-methyl-6-(4-methylpiperazin-1-yl)pyrimidin-4-yl)methyl)(quinolin-8-yl)amino)butanoic acid] | 9.3 | 3820
Cc1nc(CN(C)c2cccc3cccnc23)c(C#N)c(N2CCN(C)CC2)n1 [Compound D36] | 3.6 | 1170
Cc1nc(CN(C)c2cccc3cccnc23)cc(N2CCN(C)CC2)n1 [Compound D2, N-methyl-N-((2-methyl-6-(4-methylpiperazin-1-yl)pyrimidin-4-yl)methyl)quinolin-8-amine] | 0.24 | 65
CCN(Cc1cc(N2CCN(C)CC2)nc(C)n1)c1cccc2cccnc12 [Compound D25] | 16 | 151
Cc1nc(CN(C)c2c(C)ccc3cccnc23)cc(N2CCN(C)CC2)n1 [Compound D14] | 0.3 | 57
Cc1nc(CN(CCCCN)c2cccc3cccnc23)cc(N2CCN(C)CC2)n1 [Compound D28] | 0.21 | 338
Cc1nc(CN(C)c2ncnc3cccnc23)cc(N2CCN(C)CC2)n1 [Compound D24] | 12400 | –
Cc1nc(CN(C)c2ccc(S(C)(=O)=O)c3cccnc23)cc(N2CCN(C)CC2)n1 [Compound D43, N-methyl-N-((2-methyl-6-(4-methylpiperazin-1-yl)pyrimidin-4-yl)methyl)-5-(methylsulfonyl)quinolin-8-amine] | 3380 | –
Cc1nc(CN(C)C2=C(F)CCc3cccnc32)cc(N2CCN(C)CC2)n1 [Compound D1, 7-fluoro-N-methyl-N-((2-methyl-6-(4-methylpiperazin-1-yl)pyrimidin-4-yl)methyl)-5,6-dihydroquinolin-8-amine] | 1.2 | 18
Cc1nc(CN(C)c2c(NS(C)(=O)=O)ccc3cccnc23)cc(N2CCN(C)CC2)n1 [Compound D59] | 450 | –
Cc1nc(CN(C)c2ccc(NS(C)(=O)=O)c3cccnc23)cc(N2CCN(C)CC2)n1 [Compound D57, N-(8-(methyl((2-methyl-6-(4-methylpiperazin-1-yl)pyrimidin-4-yl)methyl)amino)quinolin-5-yl)methanesulfonamide] | 2880 | –
C[C@@H](c1ccccn1)N(C)Cc1cn2c(N3CCN4CCC[C@@H]4C3)cccc2n1 [Compound A98] | 0.15 | –
CN1CCCN(c2cc(CN(C)C3CCCc4cccnc43)ncn2)CC1 (centres unmarked) [Compound A22] | 3.4 | 32
C[C@@H](c1ccccn1)N(C)Cc1cc(N2CCN(C)CC2)nc(CO)n1 [Compound A81] | 4.5 | –
Cc1nc(CN(C)c2cccc3cccnc23)c(CO)c(N2CCN(C)CC2)n1 [Compound D37] | 0.95 | –
Cc1nc(CN(C)[C@@H](C)c2ccccn2)c(CO)c(N2CCN(C)CC2)n1 [Compound A85, (S)-(2-methyl-4-((methyl(1-(pyridin-2-yl)ethyl)amino)methyl)-6-(4-methylpiperazin-1-yl)pyrimidin-5-yl)methanol] | 0.99 | –
Cc1nc(CN(C)[C@@H](C)c2ccccn2)cc(N2CCN(C)CC2CO)n1 (some centres unmarked) [Compound A84] | 3 | –
Cc1cc(N(C)Cc2cc(N3CCN(C)CC3)nc(C)n2)c2ncccc2c1 [Compound D15] | 0.4 | –
Cc1nc(CN(C)c2cncc3cccnc23)cc(N2CCN(C)CC2)n1 [Compound D22, N-methyl-N-((2-methyl-6-(4-methylpiperazin-1-yl)pyrimidin-4-yl)methyl)-1,6-naphthyridin-8-amine] | 965 | –
CN1CCN(c2cc(CN(C)c3cccc4cccnc34)nc(N(C)C)n2)CC1 [Compound D11] | 1700 | –
Cc1nc(CN(C)c2cc(F)c(F)c3cccnc23)cc(N2CCN(C)CC2)n1 [Compound D20] | 3.1 | 675
Cc1nc(CN(C)c2c(C(F)(F)F)ccc3cccnc23)cc(N2CCN(C)CC2)n1 [Compound D48] | 928 | –
C[C@@H](c1ccccn1)N(C)Cc1cc(N2CCN3CCC[C@@H]3C2)nc(CO)n1 [Compound A82] | 2.5 | –

Structure (SMILES) | IC50 (CXCR4 [1]) [nM] | IC50 (CXCR4 [2]) [nM]
Cc1nc(CN(c2cccc3cccnc23)C2CC2)cc(N2CCN(C)CC2)n1 [Compound D26] | 2.3 | –
Cc1nc(CN(C)c2cccc3cccnc23)cc(N2CCC(N(C)C)CC2)n1 [Compound D6] | 2.4 | –
Cc1nc(CN(C)c2cccc3cccnc23)c(Cl)c(N2CCN(C)CC2)n1 [Compound D35] | 1.2 | –
Cc1nc(CN(C)[C@@H](C)c2ccccn2)c(CO)c(N2CCN3CCC[C@@H]3C2)n1 [Compound A86] | 0.13 | –
Cc1nc(CN(C)[C@@H](C)c2ccccn2)cc(N2CCN(C)CC2)n1 [Compound A75, (S)-N-methyl-N-((2-methyl-6-(4-methylpiperazin-1-yl)pyrimidin-4-yl)methyl)-1-(pyridin-2-yl)ethan-1-amine] | 0.09 | 15
Cc1nc(CN(C)c2cccc3cccnc23)c(F)c(N2CCN(C)CC2)n1 [Compound D34] | 0.83 | –
CSc1nc(CN(C)c2cccc3cccnc23)cc(N2CCN(C)CC2)n1 [Compound D12] | 0.61 | –
Cc1nc(CN(C)c2ccc(F)c3cccnc23)cc(N2CCN(C)CC2)n1 [Compound D19] | 0.4 | –
Cc1nc(CN(C)c2cc(CO)cc3cccnc23)cc(N2CCN(C)CC2)n1 [Compound D55, (8-(methyl((2-methyl-6-(4-methylpiperazin-1-yl)pyrimidin-4-yl)methyl)amino)quinolin-6-yl)methanol] | 39 | –
Cc1nc(CN(C)c2ccc(Br)c3cccnc23)cc(N2CCN(C)CC2)n1 [Compound D41] | 6.3 | –
Cc1nc(CN2CCC[C@H]2c2ncccc2C)c(F)c(N2CCN(C)CC2)n1 [Compound C33] | 1.1 | –
C[C@@H](c1ccccn1)N(C)Cc1nc2cccc(N3CCN(C)CC3)n2c1CO [Compound A96, (S)-(2-((methyl(1-(pyridin-2-yl)ethyl)amino)methyl)-5-(4-methylpiperazin-1-yl)imidazo[1,2-a]pyridin-3-yl)methanol] | 0.086 | –
Cc1nc(CN(C)c2cccc3cccnc23)cc(N2CCC(N(C)C)C2)n1 (centres unmarked) [Compound D7] | 0.75 | –
Cc1nc(CN(C)[C@@H](C)c2ccccn2)cc(N2CCN3CCC[C@H]3C2)n1 [Compound A79] | 0.22 | –
Cc1nc(CN(C)[C@H]2CCCc3cccnc32)c(C)c(N2CCN(C)CC2)n1 [Compound A61] | 0.024 | 8.8
Cc1nc(CN(C)c2cccc3cccnc23)cc(N2CCN(C)[C@H](C)C2)n1 [Compound D4] | 0.14 | 55
Cc1nc(CN(C)[C@@H](C)c2ccccn2)c(CO)c(N2CCN(C)[C@H](C)C2)n1 [Compound A89] | 0.13 | –
Cc1nc(CN2CCC[C@H]2c2ncccc2C)cc(N2CCCN(C)CC2)n1 [Compound C36] | 0.5 | –
Cc1nc(CN(C)[C@H]2CCOc3cccnc32)cc(N2CCN(C)CC2)n1 [Compound A91] | 0.032 | –
Cc1nc(CN(C)C2CCOc3cccnc32)cc(N2CCN(C)CC2)n1 (centres unmarked) [Compound A90] | 0.046 | –
CN1CCN(c2cc(CN(C)C3CCCc4cccnc43)ncn2)CC1 (centres unmarked) [Compound A1, N-methyl-N-((6-(4-methylpiperazin-1-yl)pyrimidin-4-yl)methyl)-5,6,7,8-tetrahydroquinolin-8-amine] | 4.5 | 45
Cc1nc(CN(C)c2c(C#N)ccc3cccnc23)cc(N2CCN(C)CC2)n1 [Compound D50, 8-(methyl((2-methyl-6-(4-methylpiperazin-1-yl)pyrimidin-4-yl)methyl)amino)quinoline-7-carbonitrile] | 14 | –
Cc1nc(CN(C)c2ccc(C#N)c3cccnc23)cc(N2CCN(C)CC2)n1 [Compound D42] | 96 | –
Cc1nc(CN(C)c2cc(Br)cc3cccnc23)cc(N2CCN(C)CC2)n1 [Compound D45] | 3 | –
